“Also recorded” adds a separate entry of the source.
Experiments:
[1] = test system: mouse cornea; assay: Mouse corneal epithelium removal inside 2 mm diameter central area; type: in vivo; settings: topical eye drops, 3× daily for 12 days; 2020 (40)
Procedure: (§1) Mice were anesthetized with a mix of ketamine (200 mg/kg) and xylazine (10 mg/kg) injected intraperitoneally, and one drop of proparacaine hydrochloride solution (0.5%) was applied to the right eye subjected to injury. As previously described (19, 29), the center of the cornea was demarcated with a 2 mm trephine, and the epithelium and the anterior stroma were gently removed under a surgical microscope using a corneal rust ring remover (Algerbrush II; Alger Equipment Co., Lago Vista, TX, USA). One drop of 0.3% of tobramycin ophthalmic solution (Henry Schein, Melville, NY, USA) was applied to the eye to prevent postoperative infection. The same investigator (J.H.) performed all surgeries. Afterward, 10 μl of PEDF (50 ng/ml) plus DHA (50 nM) or DHA-derived lipid mediators were applied topically, as explained in each experimental design.

[2] = test system: corneal nerves; assay: Corneal nerve analysis (PGP9.5 and SP whole-mount nerve density); type: in vivo, mouse
From the text: PEDF+DHA stimulates corneal nerve regeneration in injury animal models (20-25). It was important to confirm the biological activity of RvD6si as a lipid mediator underlying the action of PEDF+DHA. To validate this, mice were injured and treated (as described in FIG. 4). Isolated corneas were stained with PGP 9.5, a pan-neuronal marker, and with SP neuropeptide antibodies. The density of non-injured corneal nerves positive to PGP 9.5 and SP, respectively, was used to normalize the values (FIG. 5). Substance P is a main neuropeptide in mammalian corneas (26-28).
as §1
Twelve days after injury and treatment, mice were euthanized, and the eyes enucleated and fixed with Zamboni's fixative (American Master Tech Scientific, Lodi, CA, USA) for 45 min at room temperature. The corneas were then excised and fixed for an additional 15 min, followed by 3 washes with PBS. To block nonspecific binding, corneas were incubated with 10% normal goat serum plus 0.5% Triton X-100 in PBS for 1 h at room temperature. Afterward, corneas were incubated with the primary antibodies, rabbit monoclonal anti-PGP9.5 (1:500), (ab108986; Abcam, Cambridge, MA, USA), and rat monoclonal anti-substance-P (SP; 1:100) (sc-21715; Santa Cruz Biotechnology, Dallas, TX, USA) for 24 h at room temperature with constant shaking. After being washed with PBS, the corneas were incubated with the corresponding secondary antibodies goat anti-rabbit Alexa-Fluor 488 (1:1000) and goat anti-rat Alexa-Fluor 488 (1:1000) (Thermo Fisher Scientific, Waltham, MA, USA) for 24 h at 4° C. Four radial cuts were performed on each cornea that was flatly mounted on a slide with the endothelium side up and examined with a fluorescent microscope (Deconvolution microscope DP80; Olympus, Tokyo, Japan). The images were merged together to build the entire view of the corneal nerve network. The corneal nerve density was measured using Photoshop CC 2014 (Adobe) as previously described (26, 29).

[3] = test system: mouse cornea; assay: Corneal wound healing 20 h after injury (methylene blue stained wounded area); type: in vivo; settings: for corneal wound healing: compared to PEDF+DHA (and RvD6) treatment
Procedure: Studies have shown that PEDF+DHA promotes corneal wound healing in rabbit (20, 21), and in normal and diabetic mice (24, 25) after experimental surgery. We validated the ability of RvD6s (either RvD6 or RvD6si) in stimulating corneal wound healing. The right mouse eyes were injured, and the animals were divided into four groups: vehicle, PEDF+DHA, RvD6, and RvD6si (FIG. 4).
as §1
Mice were euthanized 20 h after injury and treatment, and corneas were stained with 0.5% methylene blue for 20 sec and then washed with PBS for 2 min. Photographs were taken with a dissecting microscope (SMZ 1500; Nikon, Tokyo, Japan) through an attached digital camera (DXM 1200; Nikon). The images corresponding to the wounded area were quantified using Photoshop CC 2014 software (Adobe, San Jose, CA, USA).

[4] = test system: mouse cornea; assay: Corneal sensitivity measurement (Belmonte non-contact aesthesiometer); type: in vivo; settings: for recovery of corneal sensitivity: compared to PEDF+DHA (and RvD6) treatment; for corneal sensitivity: vs vehicle
Procedure: Corneal sensitivity was evaluated at days 3, 6, 9 and 12 after corneal injury and treatment (FIG. 4). A new methodology to measure the sensation in mouse cornea was introduced using the Belmonte non-contact aesthesiometer. […] It is important to note that this range of normal corneal sensitivity is critical to evaluate corneal sensation since the Belmonte non-contact aesthesiometer working flow rate is from 20 to 200 ml/min. The range of normal corneal sensitivity from […] in the mouse was regarded as successful recovery after injury and treatment, and it was used to normalize the measurements.
as §1
The non-contact corneal aesthesiometer has been described as a more reliable method than the standard Cochet-Bonnet aesthesiometer to determine the corneal sensation threshold (54). Therefore, for corneal sensation measurement, the Belmonte non-contact corneal aesthesiometer (55) was used with some modification. Briefly, one researcher held the mouse and kept the air output needle at a distance of 3 mm from the cornea. Another researcher controlled the air flow rate. The measurements started at an air flow rate of 80 ml per minute and then increased gradually by ten units until the mouse started blinking. When the mouse blinked, the air flow rate was recorded as the final corneal sensitivity index.

[5] = test system: trigeminal ganglion (TG) gene expression; assay: Trigeminal ganglion RNA sequencing after corneal injury and treatment; type: in vivo, mouse; settings: RNA-seq, 12 days after corneal injury and topical treatment, vs vehicle
Procedure: Because corneal sensory nerves originate in TG neurons, we wanted to validate whether corneal injury could be sensed in the TG and t, in turn, would elicit a gene expression response. Thus, TG were harvested 12 days after injury and treatment with RvD6si or RvD6 or vehicle treatment used as control (FIG. 4) and then RNA-seq analysis was performed. […] The box plots depict two activated genes by RvD6si in this class: C9orf72 and Gpm6a (FIG. 6). We also detected specific genes related to neuropeptides and ion channel receptors in the cornea that are stimulated by the addition of PEDF+DHA (19, 21, 24) (FIG. 6D). The RNA-seq established that RvD6 or RvD6si reduced gene expression of two major neuropeptides, tachykinin precursor 1 (Tac1) that encodes Substance P (SP) and calcitonin-related polypeptide beta (Calcb). It is important to note that these neuropeptides, especially Calcb, are major pain-induced mediators in migraine and other primary headaches (30).
TG corresponding to the injury eye side (n=5) were harvested and kept in RNAlater solution (Thermo Fisher Scientific) until homogenized on ice using a Dounce homogenizer. Total mRNA was extracted using an RNeasy mini kit (Qiagen, Germantown, MD, USA) as described by the manufacturer. Purity and concentration of RNA were determined with a NanoDrop ND-1000 spectrophotometer (Thermo Fisher Scientific), and the samples were stored at −80° C. until used. RNA sequencing was performed using the adapted Smart-seq2 protocol (56). Briefly, one ng of total RNA was reverse transcribed with the Oligo-dT30VN and template-switching oligo (TSO) primers. The total cDNAs were amplified using ISPCR primer, and the library was made using the Nextera XT DNA library preparation kit (Illumina, San Diego, CA, USA). The libraries were pooled using the same molarity and sequenced using the NextSeq 500/550 High Output Kit v2 (75 cycles, Illumina). After demultiplexing, RNA-seq data were aligned to the GENCODE GRCm38 mouse primary genome assembly (Release M22, gencodegenes.org/mouse/) using the RSubread package v1.34.6 for R v3.6.1 (57). The outputted BAM files for sequencing data alignment were counted using featureCounts function (Subread v1.6.5 in Ubuntu LTS 16.4 operating system) (58). Next, the raw count data were subjected to differential gene expression analysis using DESeq2 package for R (59). The adjusted p-values were regarded as the false discover rate (FDR).

CC/C=C\C[C@@H](O)/C=C/C=C\C/C=C\C/C=C\C=C\[C@H](O)CCC(=O)O (single isomer, unassigned) [RvD6si]
corneal wound healing, sensitivity and nerve regeneration [1]: Increased corneal wound healing, sensitivity
total corneal nerve density, differences between RvD6si, RvD6, and PEDF+DHA ([2]; 12 days after injury and treatment): no significant differences
total corneal nerve density (PGP 9.5) ([2]; 12 days after injury and treatment, % of the normal (uninjured) cornea): 62.6±4.2%
density of SP-positive nerves ([2]; 12 days after injury, compared to the vehicle-treated group): higher
corneal wound healing (wound closure) ([3]; 20 h after injury and topical treatment, compared to vehicle): greatest increase
corneal wound healing [3]: more potently
corneal wound healing ([3]; listed as RvD6i): accelerated
recovery of corneal sensitivity [4]: more potently
recovery of corneal sensitivity ([4]; listed as RvD6i): accelerated; also recorded: sooner
corneal sensitivity ([4]; day 3 after injury and treatment): faster recovery; also recorded: significantly higher
corneal sensitivity ([4]; day 6 after injury and treatment): faster recovery; also recorded: significantly higher
corneal sensitivity ([4]; day 9 after injury and treatment): significantly higher
C9orf72 gene expression in TG [5]: activated; also recorded: strong activation
Calcb gene expression in TG [5]: reduced; also recorded: decreased
Gpm6a gene expression in TG [5]: activated; also recorded: strong activation
Nrp1 gene expression in TG [5]: selectively enhanced; also recorded: selective increase
Rictor gene expression in TG [5]: strong induction; also recorded: potently and selectively induces
Tac1 gene expression in TG [5]: reduced; also recorded: decreased
Trpm8 gene expression in TG [5]: selectively enhanced; also recorded: increased expression
C9orf72 gene expression in TG ([5]; listed as RvD6i): induces
Calcb gene expression in TG ([5]; listed as RvD6i): decreased; also recorded: down-regulated
Gpm6a gene expression in TG ([5]; listed as RvD6i): induces
Rictor gene expression in TG ([5]; listed as RvD6i): strong inducer; also recorded: up-regulated
Tac1 gene expression in TG ([5]; listed as RvD6i): decreased; also recorded: down-regulated
Trpm8 gene expression in TG ([5]; listed as RvD6i): increased; also recorded: up-regulated
